Literature values in patent US20120190646A1, “Compositions Comprising Thalidomide and Artemisinin for the Treatment of Cancer” (priority 2009, published 2012).

Conditions: multiple myeloma patients; thalidomide administered without prophylaxis; 'as high as'

Structure (SMILES): O=C1CCC(N2C(=O)c3ccccc3C2=O)C(=O)N1 (racemic) [thalidomide, 2-(2,6-dioxo-3-piperidinyl)-1H-isoindole-1,3(2H)-dione]
- VTE rates: ≤ 26%
